Assay results reported in patent US5334716A, “Heterocyclic derivatives” (Fujisawa Pharmaceutical Co., Ltd., priority 1991, dated 1994).

Each compound was assayed against prostatic testosterone 5α-reductase (assay: Inhibitory activity on testosterone 5α-reductase in rats). Conditions: rat ventral prostate 5α-reductase suspension, 3H-testosterone 2.2×10^-9 M, 50 μM NADPH, pH 6.5, 37° C., 30 minutes.
Type: biochemical, rat (Spraque-Dawley)
Excerpt: [2] Inhibitory activity on testosterone 5α-reductase in rats
1,2,6,7-^3 H-Testosterone (85-105 Ci/mmol) is a mixture of 1,2,6,7-^3 H-testosterone and testosterone which includes 85-105 Ci of 1,2,6,7-^3 H-testosterone per mmol of testosterone and is purchased from New England Nuclear, Boston, Mass., U.S.A.
Aquazol-2 (Aquazol-2 Universal LSC Cocktail): trademark, purchased from New England Nuclear, Boston, Mass., U.S.A. ii) Preparation of prostatic testosterone 5α-reductase
Mature Spraque-Dawley male rats (7-8 weeks old) were sacrificed by diethyl ether. The ventral prostates were dissected to be free of their capsules and their combined volume was measured by displacement in several milliliters of ice-cold medium A (0.32M sucrose, 0.1 mM dithiothreitol and 20 mM sodium phosphate, pH 6.5). Unless specified, all the following procedures were carried out at 0°-4° C. The prostates were drained, minced, and then homogenized in 3-4 tissue volumes of medium A with Pyrex-glass homogenizer. The homogenate was fractioned by differential centrifugations at […]. The resulting pellets were resuspended in medium A. The suspension (20-30 mg protein/ml) was stored at -80° C. […]
iii) Testosterone 5α-reductase assay
The reaction solution contains 1 mM dithiothreitol, 40 mM sodium phosphate pH 6.5, 50 μM NADPH, 1,2,6,7-^3 H-testosterone/testosterone (2.2×10^-9 M) and the suspension prepared above (0.8 mg of protein) in a total volume of 565 μl. Test Compound was added in 10 μl of 10% ethanol whereas control tubes received the same volume of 10% ethanol. The reaction was started with the addition of the enzyme suspension. After incubation at 37° C. for 30 minutes, the reaction was extracted with 1 ml of ethyl acetate. Fifty μl of ethyl acetate phase was chromatographed on a Merck silica plastic sheet Kieselgel 60 F254, using ethyl acetate: cyclohexane (1:1) as the developing solvent system. The plastic sheet was air dried and cut the testosterone and the 5α-dihydrotestosterone areas. The radioactivity was counted in 5 ml of Aquazol-2 in Packard scintillation counter (PACKARD TRI - CARB 4530), and an inhibitory ratio was calculated.

Row | SMILES | IC50
1 | CCC(Oc1ccc(C(=O)c2cc(CCCC(=O)O)n3ccccc23)cc1)c1ccc(CC(C)C)cc1 (centres unmarked) [(4), 4-[1-[4-[1-(4-Isobutylphenyl)propyloxy]benzoyl]indolizin-3-yl]butyric acid] | 0.55 nM
2 | CCCCC(Oc1ccc(C(=O)c2cc(CCCC(=O)O)n3ccccc23)cc1)c1ccc(CC(C)C)cc1 (centres unmarked) [(5), 4-[1-[4-[1-(4-Isobutylphenyl)pentyloxy]benzoyl]indolizin-3-yl]butyricacid] | 1.8 nM

More lines, now with the values ahead:

Row | IC50 | SMILES
3 | 0.44 nM | CC(C)Cc1ccc(C(Nc2ccc(C(=O)c3cc(CCCC(=O)O)n4ccccc34)cc2)c2ccc(CC(C)C)cc2)cc1 [(2), 4-[1-[4-[Bis(4-isobutylphenyl)methylamino]benzoyl]indolizin-3-yl]butyric a cid]
4 | 2.3 nM | CC(C)Cc1ccc(C(Nc2cccc(C(=O)c3cc(CCCC(=O)O)c4ccccn34)c2)c2ccc(CC(C)C)cc2)cc1 [Compound (1), 4-[3-[3-[Bis(4-isobutylphenyl)methylamino]benzoyl]indolizin-1-yl]butyric a cid]
5 | 6.7 nM | CC(C)Cc1ccc(C(Oc2cccc(C(=O)c3cc(CCCC(=O)O)c4ccccn34)c2)c2ccc(CC(C)C)cc2)cc1 [(3), 4-[3-[3-[Bis(4-isobutylphenyl)methoxy]benzoyl]indolizin-1-yl]butyric acid]
